Assay results from PubChem BioAssay (NCI).
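Dose response: 5 concentrations. Exposure: 48 h. Format: 96-well plates. Endpoint: linear interpolation; highest concentration if not reached. GI50 marks 50% less growth. Definition used: TGI = concentration required for complete inhibition of growth.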

Tests used:
Assay in all cases: growth of human tumour cells (NCI), 48 h; in the data active = GI50 below about 0.43 µM; inactive = the rest
COLO 205 colon = system: COLO 205 colon
OVCAR-5 ovarian = system: OVCAR-5 ovarian
TK-10 renal = system: TK-10 renal
NCI/ADR-RES ovarian = system: NCI/ADR-RES ovarian
SK-MEL-2 melanoma = system: SK-MEL-2 melanoma
PC-3 prostate = system: PC-3 prostate
SN12C renal = system: SN12C renal
OVCAR-4 ovarian = system: OVCAR-4 ovarian
KM12 colon = system: KM12 colon
UACC-62 melanoma = system: UACC-62 melanoma
HCT-116 colon = system: HCT-116 colon
HOP-92 NSCLC = system: HOP-92 NSCLC
UO-31 renal = system: UO-31 renal
SR leukemia = system: SR leukemia
ACHN renal = system: ACHN renal
MDA-MB-231 breast = system: MDA-MB-231 breast
SK-OV-3 ovarian = system: SK-OV-3 ovarian
IGROV1 ovarian = system: IGROV1 ovarian
CCRF-CEM leukemia = system: CCRF-CEM leukemia
HCC-2998 colon = system: HCC-2998 colon
MCF7 breast = system: MCF7 breast
MALME-3M melanoma = system: MALME-3M melanoma
RXF 393 renal = system: RXF 393 renal
HOP-62 NSCLC = system: HOP-62 NSCLC
NCI-H522 lung = system: NCI-H522 lung
SK-MEL-5 melanoma = system: SK-MEL-5 melanoma
SF-539 CNS = system: SF-539 CNS
M14 melanoma = system: M14 melanoma
UACC-257 melanoma = system: UACC-257 melanoma
SF-268 CNS = system: SF-268 CNS
786-0 renal = system: 786-0 renal
U251 CNS = system: U251 CNS
NCI-H460 lung = system: NCI-H460 lung
MDA-MB-435 = system: MDA-MB-435
DU-145 prostate = system: DU-145 prostate
HL-60(TB) leukemia = system: HL-60(TB) leukemia
SNB-75 CNS = system: SNB-75 CNS
HT29 colon = system: HT29 colon
OVCAR-3 ovarian = system: OVCAR-3 ovarian
OVCAR-8 ovarian = system: OVCAR-8 ovarian
NCI-H226 lung = system: NCI-H226 lung
HS 578T breast = system: HS 578T breast
A498 renal = system: A498 renal
NCI-H23 lung = system: NCI-H23 lung
HCT-15 colon = system: HCT-15 colon
T-47D breast = system: T-47D breast
LOX IMVI melanoma = system: LOX IMVI melanoma
EKVX NSCLC = system: EKVX NSCLC
SNB-19 CNS = system: SNB-19 CNS
SF-295 CNS = system: SF-295 CNS
SW-620 colon = system: SW-620 colon
MOLT-4 leukemia = system: MOLT-4 leukemia
BT-549 breast = system: BT-549 breast
A549 NSCLC = system: A549 NSCLC
SK-MEL-28 melanoma = system: SK-MEL-28 melanoma
RPMI-8226 leukemia = system: RPMI-8226 leukemia

O=C(O)c1sccc1O
99.2 µM: TGI (SK-MEL-5 melanoma)
52 µM: TGI (UACC-62 melanoma)
73.5 µM: TGI (MDA-MB-231 breast)
90.1 µM: TGI (HL-60(TB) leukemia)
> 100 µM: TGI (COLO 205 colon) | TGI (OVCAR-5 ovarian) | TGI (TK-10 renal) | TGI (NCI/ADR-RES ovarian) | TGI (SK-MEL-2 melanoma) | TGI (PC-3 prostate) | TGI (SN12C renal) | TGI (OVCAR-4 ovarian) | TGI (KM12 colon) | TGI (HCT-116 colon) | TGI (HOP-92 NSCLC) | TGI (UO-31 renal) | TGI (SR leukemia) | TGI (ACHN renal) | TGI (SK-OV-3 ovarian) | TGI (IGROV1 ovarian) | TGI (CCRF-CEM leukemia) | TGI (HCC-2998 colon) | TGI (MCF7 breast) | TGI (MALME-3M melanoma) | TGI (RXF 393 renal) | TGI (HOP-62 NSCLC) | TGI (SF-539 CNS) | TGI (M14 melanoma) | TGI (UACC-257 melanoma) | TGI (SF-268 CNS) | TGI (786-0 renal) | TGI (U251 CNS) | TGI (NCI-H460 lung) | TGI (MDA-MB-435) | TGI (DU-145 prostate) | TGI (SNB-75 CNS) | TGI (HT29 colon) | TGI (OVCAR-3 ovarian) | TGI (OVCAR-8 ovarian) | TGI (NCI-H226 lung) | TGI (HS 578T breast) | TGI (A498 renal) | TGI (NCI-H23 lung) | TGI (HCT-15 colon) | TGI (T-47D breast) | TGI (LOX IMVI melanoma) | TGI (EKVX NSCLC) | TGI (SNB-19 CNS) | TGI (SF-295 CNS) | TGI (SW-620 colon) | TGI (MOLT-4 leukemia) | TGI (BT-549 breast) | TGI (A549 NSCLC) | TGI (SK-MEL-28 melanoma) | TGI (RPMI-8226 leukemia)
inactive: GI50 (COLO 205 colon) 60.1 µM | GI50 (OVCAR-5 ovarian) 76.3 µM | GI50 (TK-10 renal) 89.6 µM | GI50 (NCI/ADR-RES ovarian) 40.5 µM | GI50 (SK-MEL-2 melanoma) 35.1 µM | GI50 (PC-3 prostate) 24.2 µM | GI50 (SN12C renal) 32.7 µM | GI50 (OVCAR-4 ovarian) 26.4 µM | GI50 (KM12 colon) 30.6 µM | GI50 (UACC-62 melanoma) 17.9 µM | GI50 (HCT-116 colon) 31.2 µM | GI50 (HOP-92 NSCLC) 24.9 µM | GI50 (UO-31 renal) 15.2 µM | GI50 (SR leukemia) 34.5 µM | GI50 (ACHN renal) 28.6 µM | GI50 (MDA-MB-231 breast) 16.4 µM | GI50 (SK-OV-3 ovarian) > 100 µM | GI50 (IGROV1 ovarian) 21.8 µM | GI50 (CCRF-CEM leukemia) 31.9 µM | GI50 (HCC-2998 colon) 36.6 µM | GI50 (MCF7 breast) 31.5 µM | GI50 (MALME-3M melanoma) 83.4 µM | GI50 (RXF 393 renal) 32 µM | GI50 (HOP-62 NSCLC) 22.2 µM | GI50 (NCI-H522 lung) 25.4 µM | GI50 (SK-MEL-5 melanoma) 25.3 µM | GI50 (SF-539 CNS) 28.8 µM | GI50 (M14 melanoma) 27 µM | GI50 (UACC-257 melanoma) 47.2 µM | GI50 (SF-268 CNS) 33.2 µM | GI50 (786-0 renal) 60.9 µM | GI50 (U251 CNS) 34.7 µM | GI50 (NCI-H460 lung) 33.5 µM | GI50 (MDA-MB-435) 27.1 µM | GI50 (DU-145 prostate) 48 µM | GI50 (HL-60(TB) leukemia) 33.9 µM | GI50 (SNB-75 CNS) 15.9 µM | GI50 (HT29 colon) 57.5 µM | GI50 (OVCAR-3 ovarian) 32.7 µM | GI50 (OVCAR-8 ovarian) 47.7 µM | GI50 (NCI-H226 lung) > 100 µM | GI50 (HS 578T breast) 24.9 µM | GI50 (A498 renal) 52.3 µM | GI50 (NCI-H23 lung) 37.3 µM | GI50 (HCT-15 colon) 32.1 µM | GI50 (T-47D breast) 33.3 µM | GI50 (LOX IMVI melanoma) 26.4 µM | GI50 (EKVX NSCLC) 21.7 µM | GI50 (SNB-19 CNS) 41.3 µM | GI50 (SF-295 CNS) 34.8 µM | GI50 (SW-620 colon) 31.4 µM | GI50 (MOLT-4 leukemia) 34.9 µM | GI50 (BT-549 breast) 21.6 µM | GI50 (A549 NSCLC) 50.3 µM | GI50 (SK-MEL-28 melanoma) 32.2 µM | GI50 (RPMI-8226 leukemia) 25.2 µM
80.7 µM: TGI (NCI-H522 lung)
